Data set [1] has as its system Plasmodium berghei. As to the kind of experiment: Causal prophylactic activity on OF1 mice infected with Plasmodium berghei. The format is in vivo, P. berghei (ANKA), in Swiss OF1 mice. Particulars: for ED50 / ED100 / minimal effective dose: Plasmodium berghei, iv, 3 h; for ED50 / ED100 / minimal effective dose / CPD50, causal prophylactic dose curing 50% of the infected and treated animals / ED100, totally curative dose: single i.v. three hours after sporozoites, mg PQ diphosphate equivalent/kg; for ED50: read-out: CPD50, causal prophylactic dose curing 50% of the infected and treated animals; for ED100: read-out: ED100, totally curative dose; for minimal effective dose: read-out: Minimal effective dose (MED); for Activity relative to PQ, fold as active: model of malaria in mice; for CPD50, fold lower than for PQ: mouse, in vivo; for PQ index: ratio CPD50 of PQ/CPD50 of the compound. Here is the method: Primaquine and its derivatives are tested in the model of malaria in rodents employing the infection of mice with Plasmodium berghei, the sporozoites originating from infected Anopheles stephensi mosquitoes. This model, developed by Most H., Herman R. & Schoenfeld C. (1967), Am. J. Trop. med. Hyg. 16, 572-575, enables the casual prophylatic (tissue schizonticidal) activity of new therapeutic compounds to be determined.
The procedure used is that derived from Most H. & Montuori W.A. (1975), Am. J. Trop. Med. Hyg. 24, 179-189. It involves the system P. berghei (ANKA)/Anopheles stephensi/Swiss OF1 mice. The ANKA strain of P. b. berghei is maintained cyclically on Anopheles stephensi. The Swiss OF1 strain mouse is especially sensitive to P. b. berghei, which produces an invariably fatal infection.
The legs, wings and abdomen are removed from female mosquitoes (80 to 100 individuals per preparation) and the latter are then homogenized at 4° C. in MEM medium (GIBCO) containing 10% of fetal calf serum using a glass Potter. The sporozoite suspension is then purified from the mosquito debris by two successive centrifugations (2 min at 50 g and 5 min at 200 g) and the collected supernatant is stored at 4° C. After counting in a Petroff-Hausser chamber, the number of parasites is adjusted by dilution with the same cold medium to a density of 2×10^5 sporozoites/ml.
The causal prophylactic activity of the compounds, that is to say the dose enabling 50% of the infected animals to be cured (CPD50) is obtained by analysis of the logits of the response (expressed as a % LTS) as a function of the dose (mg PQ/kg).
A volume of 0.5 ml of the suspension containing 10^5 sporozoites is injected i.v. into female Swiss OF1 mice weighing 20 to 25 g, used for the therapeutic tests. 1.2. Chemotherapeutic treatments
Groups of 20 to 25 mice, infected as described above, are treated with a single intravenous injection of primaquine diphosphate (PQ) or of its two derivatives in hydrochloride form, three hours after inoculation of the sporozoites. The volume injected is adjusted according to the weight of the mouse, on the basis of 0.25 ml for a weight of 25 g. The compounds are diluted in phosphatebuffered saline (PBS), pH 7.0, and the pH is adjusted to 7.0. Infected but untreated mice (5 per group), receive the buffer alone and serve to monitor the infectivity of the sporozoites.
The experimental mice are kept for a period of 50 days. The development of the parasitemia is followed by daily examination of blood smears stained for 60 min with 5% Giemsa in Sorensen buffer at pH 7.2, from day 5 up to day 15. The number of infected animals can thus be determined.
The animals infected using P. berchei sporozoites are treated three hours later with a single i.v. injection of the compounds. This test enables the casual prophylactic activity of the compounds, that is the dose enabling 50% of the infected animals to be cured (CPD50), to be defined. The dose is always expressed as mg of PQ diphosphate per kg.
The animals infected using P. berghei sporozoites are treated three hours later with a single i.v. injection of the compounds. This test enables the casual prophylactic activity of the compounds, that is the dose enabling 50% of the infected animals to be cured (CPD50), to be defined. The dose is always expressed as mg of PQ diphosphate per kg.

In data set [2] the test system is Plasmodium berghei. As to the kind of experiment: Therapeutic index in mice. As to conditions: mice, i.v. The format is in vivo, P. berghei. The text has this: The therapeutic index is defined as the ratio of the toxicity, expressed as LD50, to the therapeutic activity, expressed as CPD50, in mice.
^b : The therapeutic index (TI) is the ratio of LD50 to […]

The subject of another data set is female Swiss OF1 mice. Kind of data set: Acute toxicity in mice after a single i.v. administration. The data set is classed as in vivo. Particulars: for Fold less toxic than PQ: mice, i.v.; for LD50 / Maximum tolerated dose (MTD): single i.v., mg PQ diphosphate equivalent/kg; for Maximum tolerated dose (MTD): weight loss not exceeding 5% during 5 days. As for the experimental part:
(§1) The acute toxicity in terms of a single administered dose is determined on female Swiss OF1 mice weighing 22 to 25 g. A series of dilutions of each compound is injected intravenously into groups of 10 mice (0.1 ml per 10 g of weight).
(§2) The lethal dose for 50% of mice (LD50) is determined by linear regression of the logits of the percentage of surviving animals as a function of the logarithm of the dose injected (in mg PQ diphosphate equivalent/kg) (Logit Weighted Transformation, Berkson J., 1953; J. Am. Stat. Assoc. 48, 565-599).
(§3) ^a : The products are administered i.v. to groups of 10 female Swiss
(§4) ^b : Maximum tolerated dose (MTD), defined as the highest dose
(§5) The acute toxicity in terms of a single administered dose is determined under the same conditions and according the protocol of Example 3.

Assay in data set [3]: as above
The format is in vivo. As to conditions: mouse, in vivo, iv, single i.v., mg PQ diphosphate equivalent/kg; for MTD: weight loss not exceeding 5% during 5 days, read-out: Maximum tolerated dose (MTD). Here is the method:
as §1, §2, §3, §4, §5

Structures are written as SMILES. “And” between values parts separate entries of the source, which are not always exact repeats. Equal entries are not always repeated.

As a reminder, the minimal effective dose is the smallest amount tested that counted as effective. The MTD is the highest dose tested that stayed within the study's limit of toxicity.

As for `COc1cc(NC(C)CCCNC(=O)[C@@H](N)CC(=O)O)c2ncccc2c1` (stereo partly drawn) [ASP-PQ, N-(α-L-aspartyl)-PQ], in the data set with Plasmodium berghei [1], the ED50 came out at 11.6 mg/kg; the ED100 was determined as 31 mg/kg; the minimal effective dose came out at 4.4 mg/kg; the “Activity relative to PQ, fold as active” value is listed as 1.6 -fold. For the same compound, in the data set on Plasmodium berghei [1], the “CPD50, fold lower than for PQ” value is 1.6 -fold; the PQ index is given as 1.62; the “CPD50, causal prophylactic dose curing 50% of the infected and treated animals” value is 11.6 (0.9) mg/kg; the “ED100, totally curative dose” value was 31.1 (9.2) mg/kg. Also, in the data set with Plasmodium berghei [2], the “Therapeutic index, fold higher than that of PQ” value is “at least 8 -fold”. In the data set on female Swiss OF1 mice, the “Fold less toxic than PQ” value is given as “at least 5 -fold”; the LD50 is 165.5 (5.4) mg/kg and 165 (5.4) mg/kg; the “Maximum tolerated dose (MTD)” value was 107.2 (14.2) mg/kg. For the same compound, in data set [3], the LD50 is 165 mg/kg and the MTD came to 107 mg/kg.
Consider `COc1cc(NC(C)CCCNC(=O)C[C@H](N)C(=O)O)c2ncccc2c1` (stereo partly drawn) [βASP-PQ, N-(β-L-aspartyl)-PQ], for which, in the data set on Plasmodium berghei [1], the ED50 worked out at 11.2 mg/kg; the ED100 amounted to 31 mg/kg; the minimal effective dose was determined as 4.1 mg/kg; the “Activity relative to PQ, fold as active” value was “at least 1.6 -fold”. Further, in the data set with Plasmodium berghei [1], the “CPD50, fold lower than for PQ” value is listed as 1.6 -fold; the PQ index is 1.68; the “CPD50, causal prophylactic dose curing 50% of the infected and treated animals” value is reported as 11.2 (0.7) mg/kg; the “ED100, totally curative dose” value is listed as 30.6 (5.7) mg/kg. Also, the “Therapeutic index, fold higher than that of PQ” value with Plasmodium berghei [2] was 8 -fold. In addition, in the data set with female Swiss OF1 mice, the “Fold less toxic than PQ” value was “at least 5 -fold”; the LD50 was 164.4 (6.2) mg/kg and 164 (6.2) mg/kg; the “Maximum tolerated dose (MTD)” value was 109.1 (13.1) mg/kg. For the same compound, in data set [3], the LD50 was determined as 164 mg/kg and the MTD amounted to 109 mg/kg.

Values taken from patent US5110935A, “New compounds which are active against the tissue forms of malaria and method of preparation” (Ire-Celltarg, S.A., priority 1988, dated 1992).
